Measured values taken from US7183320B2, “Benzoylsulfonamides and sulfonylbenzamidines for use as antitumour agents” (Eli Lilly and Company, priority 2002, dated 2007).

Key:
[1] = test system: MURINE COLON CARCINOMA-26; experiment: Early stage murine colon carcinoma-26 (Table X); format: in vivo; conditions: Balb/C female mice
Source text: (§1) Conventional Murine Tumor and Human Tumor Xenouraft Assays
Briefly, the murine tumor or human xenograph was implanted subcutaneously using either 12-gauge trocar implants or counted number of cells. The location for the trocar insertion is midway between the axillary and inguinal region along the side of the mouse. The trocar is slipped approximately ¾ of an inch subcutaneously up toward the axilla before discharging the tumor fragment, and pinching the skin as the trocar is removed., Alternatively, human tumor cells prepared from a […] of donor tumors (5×10^6 cells) were implanted subcutaneously in a hind-leg of a male or female nude mouse (Charles River). Either a test compound in vehicle or vehicle alone was administered by intravenous bolus injection (iv), intraperitoneal injection (ip), or oral gavage (po). Each treatment group, as well as a group of untreated control animals, consisted of five animals per group in each experiment. […] Body weights were taken as a general measure of toxicity. The subcutaneous tumor data were analyzed by determining the median tumor weight for each treatment group over the course of the experiment and calculating the tumor growth delay as the difference in days for the treatment versus the control tumors to reach a volume of either 500 or 1000 mm^3.
The parameters measured in each experiment are summarized in the following paragraphs. • Tumor Weight(mg)=(a×b^2)/2 where a=tumor length (mm) and b=tumor width (mm). • Tumor Growth Delay=T−C where T is the median time (days) required for the treatment group tumors to reach a predetermined size, and C is the median time (days) for the control group tumors to reach the same size. Tumor-free survivors are excluded from this calculation, and are tabulated separately (Tumor Free).
The median tumor weight of each group is determined (including zeros). The T/C value in percent is an indication of antitumor effectiveness.

[2] = test system: HCT116 colon carcinoma cells; experiment: HCT116 colon carcinoma cell growth inhibition (WST-1, 72 hr); format: cell-based, human; conditions: Homo sapiens, HCT-116, 72 hr exposure
Protocol: HCT116 Colon Carcinoma Cell Growth Inhibition
HCT116 colon carcinoma cells were grown monolayer culture in RPMI 1640 medium supplemented with 10% fetal bovine serum and 1% penicillin-streptomycin (GibcoBRL, Grand Island, N.Y.). HCT116 cells in exponential growth phase were exposed to various concentrations of the test compounds at 37° C. for 72 hr in 5% carbon dioxide/air. After exposure to the agent, the cells were washed with 0.9% phosphate buffered saline. Growth inhibition was determined using WST-1 cell proliferation reagent as described above. The results are expressed as the growth fraction of treated cells compared with control cultures. Representative compounds of the present invention were tested for efficacy against the human colon HCT116 tumor cells.

[3] = test system: TAXOL SENSITIVE HUMAN COLON ADENOCARCINOMA #15/0; experiment: Early stage taxol sensitive human colon adenocarcinoma #15/0 xenograft (Table V); format: in vivo; conditions: total dose 420 mg/kg: 140 mg/kg/injection IV on days 3, 5, and 7; Balb/C SCID female mice
Source text: as §1
Inhibition of tumors transplanted into mice is an accepted procedure for studying the efficacy of antitumor agents (Corbett, et al., In vivo Methods for Screening and Preclinical Testing; Use of rodent solid tumors for drug discovery., In: Anticancer Drug Development Guide: Preclinical Screening, Clinical Trials, and Approval, B. Teicher (ed), Humana Press Inc., Totowa, N.J., Chapter 5, pages 75–99 (1997); (Corbett, et al., Int., J. Parmacog., 33, Supplement, 102–122 (1995)). Murine tumors or human xenographs were implanted essentially as described by Corbett in In vivo Methods for Screening and Preclimical Testing; Use of rodent solid tumors for drug discovery. Briefly, the murine tumor or human xenograph was implanted subcutaneously using either 12-gauge trocar implants or counted number of cells. The location for the trocar insertion is midway between the axillary and inguinal region along the side of the mouse. The trocar is slipped approximately ¾ of an inch subcutaneously up toward the axilla before discharging the tumor fragment, and pinching the skin as the trocar is removed., Alternatively, human tumor cells prepared from a […] of donor tumors (5×10^6 cells) were implanted subcutaneously in a hind-leg of a male or female nude mouse (Charles River). Either a test compound in vehicle or vehicle alone was administered by intravenous bolus injection (iv), intraperitoneal injection (ip), or oral gavage (po). Each treatment group, as well as a group of untreated control animals, consisted of five animals per group in each experiment. Subcutaneous tumor response was monitored by tumor volume measurement performed twice each week over the course of the experiment (60–120 days). Body weights were taken as a general measure of toxicity. The subcutaneous tumor data were analyzed by determining the median tumor weight for each treatment group over the course of the experiment and calculating the tumor growth delay as the difference in days for the treatment versus the control tumors to reach a volume of either 500 or 1000 mm^3.
The compound of Example 110 was tested against a variety of murine and human tumors substantially as described supra. The parameters measured in each experiment are summarized in the following paragraphs. • Tumor Weight(mg)=(a×b^2)/2 where a=tumor length (mm) and b=tumor width (mm). • Tumor Growth Delay=T−C where T is the median time (days) required for the treatment group tumors to reach a predetermined size, and C is the median time (days) for the control group tumors to reach the same size. Tumor-free survivors are excluded from this calculation, and are tabulated separately (Tumor Free).
[formula] • where Tumor Growth Delay is as previously defined and Td is tumor volume doubling time (days), estimated from the best fit straight line from a log-linear growth plot of the control group of tumors in exponential growth (100–800 mg range) • % T/C mass—The treatment and control groups are measured when the control group tumors reach approximately 700 to 1200 mg in size (median group). The median tumor weight of each group is determined (including zeros). The T/C value in percent is an indication of antitumor effectiveness. A T/C≦42% is considered significant antitumor activity. A T/C<10% is considered to indicate highly significant antitumor activity. • Body Weight Loss Nadir—A body weight loss nadir (mean of group) of greater than 20% or drug deaths greater than 20% are considered to indicate an excessively toxic dosage in single course trials. • Activity Rating—the Activity Rating is derived from the Log Kill according to the following table: […]

[4] = total dose 1305 mg/kg: 145 mg/kg/injection IV on days 1, 3, 5, 7, 9, 13, 15, 17, and 19
[5] = total dose 1600 mg/kg: 100 mg/kg/injection IV BID on days 1, 3, 5, 7, 13, 15, 17, and 21
[6] = total dose 1740 mg/kg: 145 mg/kg/injection IV on days 1, 2, 3, 7, 8, 13, 14, 16, 18, and 20–22

O=C(NS(=O)(=O)c1ccccc1)c1ccc(Cl)cc1Cl [Example 110, N-[2,4-dichlorobenzoyl]phenylsulfonamide]
% BODY WT LOSS AT NADIR [1, 4]: +15%
% T/C MASS [1, 4]: 28%
ACTIVITY RATING [1, 4]: + (0.7–1.2)
DRUG DEATHS [1, 4]: 0/5
GROWTH DELAY [1, 4]: 6 days
LOG KILL [1, 4]: 0.9
TUMOR FREE AT DAY 31 [1, 4]: 0/5
% BODY WT LOSS AT NADIR [1, 5]: +15%
% T/C MASS [1, 5]: 34%
ACTIVITY RATING [1, 5]: +++ (2.0–2.8)
DRUG DEATHS [1, 5]: 0/5
GROWTH DELAY [1, 5]: 15 days
LOG KILL [1, 5]: 2.2
TUMOR FREE AT DAY 31 [1, 5]: 0/5
% BODY WT LOSS AT NADIR [1, 6]: +17%
% T/C MASS [1, 6]: 34%
ACTIVITY RATING [1, 6]: +++ (2.0–2.8)
DRUG DEATHS [1, 6]: 0/5
GROWTH DELAY [1, 6]: 14 days
LOG KILL [1, 6]: 2.1
TUMOR FREE AT DAY 31 [1, 6]: 0/5
IC50 [2]: 3.5 µM
% BODY WT LOSS AT NADIR [3]: 0%
% T/C MASS [3]: 0%
ACTIVITY RATING [3]: ++++ (HIGHLY ACTIVE >2.8)
DRUG DEATHS [3]: 0/5
GROWTH DELAY [3]: 33.5 days
LOG KILL [3]: 5.0
TUMOR FREE AT DAY 151 [3]: 1/5
